From PubChem BioAssay (NCI)
Several values for one entry are separate records, joined by “and”; a condition that tells them apart may be missing. Identical values can stand only once.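 Results reflect a 48-hour exposure of cells in 96-well plates to compound at five concentrations. At the GI50, growth is halved. TGI denotes the concentration required for complete inhibition of growth.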

Columns and labels:
Experiment in all cases: NCI-60 cell line screen, 48 h
CCRF-CEM leukemia = test system: CCRF-CEM leukemia
HCC-2998 colon = test system: HCC-2998 colon
HS 578T breast = test system: HS 578T breast
M14 melanoma = test system: M14 melanoma
MDA-MB-231 breast = test system: MDA-MB-231 breast
MDA-N = test system: MDA-N
OVCAR-3 ovarian = test system: OVCAR-3 ovarian
SNB-75 CNS = test system: SNB-75 CNS
SR leukemia = test system: SR leukemia
SW-620 colon = test system: SW-620 colon
U251 CNS = test system: U251 CNS
UO-31 renal = test system: UO-31 renal

SMILES | TGI (CCRF-CEM leukemia) | TGI (HCC-2998 colon) | GI50 (HS 578T breast) | TGI (HS 578T breast) [µM] | TGI (M14 melanoma) [µM] | TGI (MDA-MB-231 breast) [µM] | TGI (MDA-N) [µM] | TGI (OVCAR-3 ovarian) [µM] | TGI (SNB-75 CNS) [µM] | TGI (SR leukemia) | TGI (SW-620 colon) [µM] | TGI (U251 CNS) [µM] | TGI (UO-31 renal)
COc1ccc(-c2c(C#N)c(N)n(C3OCC(OC(C)=O)C(OC(C)=O)C3OC(C)=O)c(=S)c2C#N)cc1 (stereo unspecified) | 77.8 µM and 98.3 µM | 60.9 µM and > 100 µM | 33.5 µM and 76.2 µM | > 100 | > 100 | > 100 | > 100 | > 100 | > 100 | 39.5 µM and 54.6 µM | > 100 | > 100 | 82.6 µM and > 100 µM
O=C(CC(=O)N(C(=O)/C=C\c1ccccc1)c1ccc(Cl)cc1)N1N=C(c2ccccc2)C(N=Nc2cccc([N+](=O)[O-])c2)C1=O (stereo unspecified) | 38.5 µM | > 100 µM | – | 75.1 | > 100 | 37.7 | > 100 | 6.25 | 29.3 | 14 µM | 57.9 | 33.7 | > 100 µM
CCOC(CN(C)C(=O)Nc1cccc2ccccc12)OCC | > 10 µM | > 10 µM | – | > 10 | > 10 | > 10 | > 10 | > 10 | > 10 | > 10 µM | > 10 | > 10 | > 10 µM
Cc1csc2[n+]1C(=O)/C(=C\c1ccc([N+](=O)[O-])cc1)S2 | > 100 µM | 43.9 µM | – | 74.3 | > 100 | 68.6 | 75.2 | 33.1 | 57.1 | > 100 µM | > 100 | 45.7 | 39.3 µM
CC(C)Cn1cnc2c(NCC(C)O)nc3ccccc3c21 (stereo unspecified) | > 100 µM | > 100 µM | – | > 100 | > 100 | > 100 | > 100 | > 100 | > 100 | > 100 µM | > 100 | > 100 | > 100 µM
NC(N)=N/N=C/c1c(-c2ccc(Cl)cc2)nc2sccn12 | 4.23 µM | 2.74 µM | – | 37.6 | 3.17 | 8.15 | 3.33 | 3.6 | 3.61 | 13.2 µM | 3.04 | 3.59 | 7.49 µM
COC(=O)C1(C(=O)OC)Cc2ccc(OC)cc2C2=C1C(=O)c1ccccc1C2=O | 11.8 µM | 37.6 µM | – | 50.4 | 34.5 | 4.34 | 3.36 | 3.69 | 35.8 | > 100 µM | 16.9 | 14.8 | 18.6 µM
COC(=O)c1ccc(C)cc1CC1Cc2cc(C)ccc2C1=O (stereo unspecified) | > 100 µM | > 100 µM | – | > 100 | > 100 | > 100 | > 100 | > 100 | > 100 | > 100 µM | > 100 | > 100 | > 100 µM
[N-]=[N+]=Nc1ccccc1C(=O)N1C(=O)c2ccccc2C(=O)N(C(=O)c2ccccc2N=[N+]=[N-])c2ccccc21 | 84.6 µM | > 100 µM | – | > 100 | > 100 | > 100 | > 100 | > 100 | 64 | > 100 µM | > 100 | > 100 | > 100 µM
Cn1c2ccccc2n2c(N=O)c(-c3ccccc3)nc12 | > 100 µM | 28.3 µM | – | > 100 | 62.2 | > 100 | > 100 | > 100 | 49.8 | > 100 µM | > 100 | > 100 | > 100 µM
